Changes are numbered by the printed parent chain.

The term IC50 denotes the concentration that gives 50% inhibition. The low end stands for inhibition by little substance, the high end for a need for much substance.

Common to all, as to type: biochemical
Assay [1] deals with T1, TG2 (transglutaminase-2, transglutaminase type 2) (Homo sapiens, UniProt P21980).
T1 sequence (P21980 1-687): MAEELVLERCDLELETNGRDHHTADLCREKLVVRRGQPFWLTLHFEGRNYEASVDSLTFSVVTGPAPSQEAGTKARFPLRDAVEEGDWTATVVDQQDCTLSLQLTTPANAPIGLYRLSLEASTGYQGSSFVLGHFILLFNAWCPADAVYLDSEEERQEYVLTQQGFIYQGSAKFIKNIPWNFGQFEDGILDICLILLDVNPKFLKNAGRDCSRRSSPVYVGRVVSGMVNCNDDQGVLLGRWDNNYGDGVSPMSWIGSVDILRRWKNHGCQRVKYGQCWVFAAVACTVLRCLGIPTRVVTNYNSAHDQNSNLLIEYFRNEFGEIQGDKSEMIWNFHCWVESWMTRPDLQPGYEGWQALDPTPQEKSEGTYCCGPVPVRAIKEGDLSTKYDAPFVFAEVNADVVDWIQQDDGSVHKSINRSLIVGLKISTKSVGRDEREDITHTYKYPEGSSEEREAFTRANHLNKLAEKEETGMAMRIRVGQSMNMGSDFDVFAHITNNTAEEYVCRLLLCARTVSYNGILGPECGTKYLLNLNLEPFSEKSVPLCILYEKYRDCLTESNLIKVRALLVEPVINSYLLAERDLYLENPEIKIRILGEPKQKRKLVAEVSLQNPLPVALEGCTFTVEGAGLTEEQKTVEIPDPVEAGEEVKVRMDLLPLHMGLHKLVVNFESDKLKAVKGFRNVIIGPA

The target in assay [2] is T2, TG2 (transglutaminase-2, transglutaminase type 2) (Homo sapiens, UniProt P21980, R262S).
T2 sequence (P21980 1-687 R262S): T1 sequence (P21980 1-687) with R262S

For assay [3], the target named is T3, TG2 (transglutaminase-2, transglutaminase type 2) (Homo sapiens, UniProt P21980, K598S/K600S/K602S/R601S).
T3 sequence (P21980 1-687 K598S/K600S/R601S/K602S): T1 sequence (P21980 1-687) with K598S, K600S, R601S, K602S

Assay [4] deals with T4, TG2 (transglutaminase-2, transglutaminase type 2) (Homo sapiens, UniProt P21980, R263S).
T4 sequence (P21980 1-687 R263S): T1 sequence (P21980 1-687) with R263S

On to `Nc1nc2c(ncn2[C@@H]2O[C@H](COP(=O)(O)OP(=O)(O)OP(=O)(O)O)[C@@H](O)[C@H]2O)c(=O)[nH]1` [GTP], for which the IC50 in assay [1] came to 142 ± 24 µM; in assay [2] it was 23 ± 5 µM; in assay [3], 148 ± 26 µM; in assay [4], 79 ± 15 µM.
